The subject of test [1] is RPE degeneration. Description: Alu RNA-induced RPE degeneration in wild type mice, d4T co-delivered to the vitreous humor. It is filed as in vivo, mouse. The conditions noted are these: sub-retinal Alu RNA, increasing amounts, one week after delivery, FIG. 1. The text has this:
Arrows denote depigmented regions of RPE cell death, which resolve at highest dose of d4T.

Test [2] concerns IRAK4. Description: Western blot of IRAK4 phosphorylation in primary human RPE cells transfected with Alu RNA. It counts as cell-based. To be noted: FIG. 34. The source says:
Alu RNA mediates RPE cell death via activation of Caspase 1 and the NLRP3 inflammasome (Tarallo et al., 2012).
A general note: A western blot detects proteins with antibodies after separation by electrophoresis.

The subject of the next test is Casp-1. Description: LPS/ATP-induced Casp-1 activation in primary human RPE cells. It counts as cell-based. The conditions noted are these: d4T 25/100 uM, FIG. 8. The text has this: (§1) Vinculin was used as the loading control in the gel of FIG. 8. Additionally, as shown, LPS and ATP activate the NLRP3 inflammasome only in combination.
(§2) The loading control in FIG. 8 is vinculin. Furthermore, as shown, LPS and ATP activate the NLRP3 inflammasome only in combination, thus treatment with one or the other alone is useful as a control for this experiment.

Test [3] deals with IRAK4. Description: LPS/ATP-induced IRAK4 phosphorylation in primary human RPE cells. The conditions noted are these: d4T 25/100 uM, FIG. 8. It counts as cell-based.
Description: as §1, §2

Another test relates to IL-18. Description: LPS/ATP-induced IL-18 maturation in mouse bone marrow-derived macrophages (Western blot). To be noted: supernatants, 100 uM, FIG. 9. It is filed as cell-based. The source says: To produce FIG. 9, cell culture supernatants were collected after (i) no treatment, (ii) LPS treatment, or (iii) LPS/ATP treatment of mouse bone marrow-derived macrophages and run on Western blotting probing with antibodies for Caspase-1 and IL-18.

Test [4] deals with IL-1 beta. Description: LPS/ATP-induced IL-1 beta activation in primary mouse bone marrow-derived macrophages (Western blot). It counts as cell-based. To be noted: FIG. 39. The source says:
To determine whether LPS/ATP-induced inflammasome activation can be inhibited without RT inhibition, the present inventors utilized thymidine kinase-deficient (Raji/TK^−) and -expressing (Raji/TK^+) cells (Balzarini et al., 1989). After addition of AZT, […], but not TK^− cells, the present inventors produced AZT-triphosphate (AZT-TP), the AZT metabolite required for RT inhibition (FIG. 40; FIG. 46, FIG. 47, FIG. 48, FIG. 49, FIG. 50).
FIGS. 38-41 illustrate that NRTIs block LPS/ATP-induced inflammasome activation. […] Representative images of n=3-4 experiments are provided in each of FIGS. 38-41.

The test system of test [5] is IL-1 beta. Description: LPS/nigericin-induced IL-1 beta maturation in mouse bone marrow-derived macrophages (Western blot). It counts as cell-based. To be noted: d4T 100, 250 uM, FIG. 10. The source says:
(§3) To produce FIG. 10, cell culture supernatants were collected after (i) no treatment, (ii) LPS treatment, or (iii) LPS/nigericin treatment of mouse bone marrow-derived macrophages and run on Western blotting probing with antibodies for IL-1 beta and Caspase-1.
(§4) Cell culture supernatants were collected after (i) no treatment, (ii) LPS treatment, or (iii) LPS/nigericin treatment of mouse bone marrow-derived macrophages, and run on Western blotting probing with antibodies for IL-1 beta and Caspase-1.

In the next test the test system is Caspase-1. In words: LPS/nigericin-induced Caspase-1 activation in mouse bone marrow-derived macrophages (Western blot). It is filed as cell-based. To be noted: d4T 100, 250 uM, FIG. 10.
Description: as §3, §4

Test [6] deals with IL-1 beta. In words: MSU-induced IL-1 beta secretion from PMA-differentiated THP-1 monocytes (ELISA). It counts as cell-based, human. To be noted: co-administration at 25-1000 uM, FIG. 11, 12. The text has this: Human THP-1 monocytes were differentiated into macrophages with PMA.
To illustrate this, human THP-1 monocytes were differentiated into macrophages with PMA. Treatment with MSU increased IL-1 beta secretion compared to non-treated cells.
On the technique in general: In an ELISA, binding on a coated surface is turned into a signal by an enzyme label.

A further test concerns ATP release. Description: ATP release induced by Alu RNA from primary human RPE cells (ATP-dependent luciferase assay). It is filed as cell-based. To be noted: cell culture supernatant, FIG. 16, 42. The text has this:
Cell culture supernatant was collected from mock or Alu RNA treated cells, with or without d4T, and ATP was detected using an ATP-dependent luciferase assay.
(FIG. 16) Primary human RPE cells treated with Alu RNA for the times indicated release ATP. […] ATP was detected using an ATP-dependent luciferase assay.

In test [7] the test system is RPE degeneration. Description: RPE degeneration in mice after sub-retinal injection of a plasmid expressing Alu RNA, systemic drug administration. It counts as in vivo, mouse. The conditions noted are these: daily oral administration of d4T, FIG. 36.
Description: FIG. 24, top row, provides flat mounts stained for zonula occludens-1 (ZO-1; red), bottom row. Degeneration is outlined if FIG. 24 by blue arrowheads. Representative images of n=4 are shown.
FIG. 36 and FIG. 37 include fundus photographs: top row; flat mounts stained for zonula occludens-1 (ZO-1; red), bottom row. Degeneration is outlined by blue arrowheads. Scale bars, 50 μm.
For another test, the target named is T1, human P2X7 receptor (Homo sapiens, UniProt Q99572).
T1 construct: expressed in transfected cells
T1 sequence (Q99572 1-595): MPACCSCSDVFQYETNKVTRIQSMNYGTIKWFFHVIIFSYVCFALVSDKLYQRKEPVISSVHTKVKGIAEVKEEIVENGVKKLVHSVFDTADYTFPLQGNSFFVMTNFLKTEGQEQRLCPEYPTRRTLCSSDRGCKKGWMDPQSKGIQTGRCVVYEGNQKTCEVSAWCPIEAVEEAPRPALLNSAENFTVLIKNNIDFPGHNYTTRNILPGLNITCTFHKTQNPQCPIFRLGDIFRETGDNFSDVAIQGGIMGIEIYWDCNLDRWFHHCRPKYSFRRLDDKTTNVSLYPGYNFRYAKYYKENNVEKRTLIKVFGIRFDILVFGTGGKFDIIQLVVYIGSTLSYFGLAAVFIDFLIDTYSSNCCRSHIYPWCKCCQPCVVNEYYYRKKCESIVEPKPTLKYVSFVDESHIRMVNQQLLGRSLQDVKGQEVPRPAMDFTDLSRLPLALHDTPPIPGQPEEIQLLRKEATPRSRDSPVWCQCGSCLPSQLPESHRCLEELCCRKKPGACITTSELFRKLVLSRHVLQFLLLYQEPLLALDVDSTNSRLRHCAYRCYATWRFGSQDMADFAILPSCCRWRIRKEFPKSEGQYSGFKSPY
Description: Patch clamp analysis of P2X7 cation channel function, HEK293 stable cell line expressing human P2X7 receptor. It counts as cell-based. On the technique in general: The patch-clamp technique gives a direct electrical read-out from membranes.

Another test has as its target T2, rat P2X7 receptor (Rattus norvegicus, UniProt Q64663).
T2 construct: expressed in transfected cells
T2 sequence (Q64663 1-595): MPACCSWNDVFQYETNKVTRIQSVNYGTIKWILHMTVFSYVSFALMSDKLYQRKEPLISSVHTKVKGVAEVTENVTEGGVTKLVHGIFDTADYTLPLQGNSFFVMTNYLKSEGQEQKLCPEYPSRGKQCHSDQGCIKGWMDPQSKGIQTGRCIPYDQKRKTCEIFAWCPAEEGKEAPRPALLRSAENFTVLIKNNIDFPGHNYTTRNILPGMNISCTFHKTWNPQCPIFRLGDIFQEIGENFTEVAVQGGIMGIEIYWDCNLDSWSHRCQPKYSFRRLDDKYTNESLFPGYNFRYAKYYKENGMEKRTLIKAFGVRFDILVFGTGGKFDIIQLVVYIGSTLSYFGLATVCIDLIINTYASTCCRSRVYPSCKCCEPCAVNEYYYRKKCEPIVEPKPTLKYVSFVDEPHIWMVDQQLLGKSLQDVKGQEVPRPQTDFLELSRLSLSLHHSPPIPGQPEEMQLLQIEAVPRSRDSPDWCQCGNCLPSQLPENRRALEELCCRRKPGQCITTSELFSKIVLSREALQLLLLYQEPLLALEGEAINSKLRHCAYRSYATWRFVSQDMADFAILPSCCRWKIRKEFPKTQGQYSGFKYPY
Description: Patch clamp analysis of P2X7 cation channel function, HEK293 stable cell line expressing rat P2X7 receptor. It is filed as cell-based.

“Also recorded” adds a separate entry of the source.

Here are results for one molecule from patent US10864212B2, “Compositions and methods for treating retinal degradation” (University of Kentucky Research Foundation, priority 2013, dated 2020).

In the case of `Cc1cn([C@H]2C=C[C@@H](CO)O2)c(=O)[nH]c1=O` [d4T, 2′3′ dideoxythymidine], in the test on RPE degeneration [1], the “Alu RNA-induced RPE degeneration / RPE cell death (fundus photographs, ZO-1 flat mounts)” value is on record as “prevents Alu RNA-induced RPE cell death in a dose-dependent manner; also recorded: restored to healthy RPE morphology/intercellular junctions at highest dose of d4T”. Besides, in the test on IRAK4 [2], the IRAK4 phosphorylation result is on record as “blocks phosphorylation of IRAK4”. Moreover, the “Casp-1 activation induced by LPS/ATP” value with Casp-1 is recorded as “blocks”. Moreover, the “IRAK4 phosphorylation induced by LPS/ATP” value in the test on IRAK4 [3] is “blocks”. Also, the “IL-18 maturation induced by LPS/ATP” value in the test with IL-18 is listed as “inhibit”. For the same molecule, the “IL-1 beta activation / secretion of mature IL-1 beta, LPS/ATP” value with IL-1 beta [4] was “blocks secretion of mature IL-1 beta; also recorded: blocked IL-1 beta”. In addition, the “IL-1 beta maturation (18 and 22 kDa forms) induced by nigericin” value in the test with IL-1 beta [5] is listed as “inhibits”. Moreover, the “Caspase-1 activation (active p20 band) induced by nigericin” value with Caspase-1 was “inhibits”. In addition, the “IL-1 beta secretion induced by MSU” value with IL-1 beta [6] is “does not prevent P2X7-independent interleukin 1-beta secretion; also recorded: did not significantly affect IL-1beta secretion”. In the test on ATP release, the “ATP release induced by Alu RNA” value is reported as “does not block release of ATP; also recorded: did not affect ATP release; also recorded: does not block Alu-induced ATP release”. For the same molecule, in the test with RPE degeneration [7], the “RPE degeneration caused by pAlu” value is reported as “blocked RPE degeneration; also recorded: prevented”. In addition, the “P2X7 cation channel function (patch clamp)” value at human P2X7 receptor and on rat P2X7 receptor was “did not significantly modulate P2X7 cation channel function” throughout.
